According to patent publication US9417241B2, “5, 10, 15, 20-tetrakis (carboxyphenyl) porphine (TCPP) and kit for use with detecting cancer” (bioAffinity Technologies, Inc., priority 2000, dated 2016):

Columns and labels:
[1] = system: cancerous cells of the lung; conditions: incubation of a cell sample for 6-24 hours with 200 μg/ml TCPP; cited from earlier work
[2] = system: sputum cells (dysplastic, pre-cancerous and cancerous cells); test: Glass slide assay for detection of pre-cancerous and cancerous cells with TCPP (fluorescence microscopy of sputum monolayer slides vs PAP-stain cytomorphology); assay type: cell-based, human

SMILES: O=C(O)c1ccc(-c2c3nc(c(-c4ccc(C(=O)O)cc4)c4ccc([nH]4)c(-c4ccc(C(=O)O)cc4)c4nc(c(-c5ccc(C(=O)O)cc5)c5ccc2[nH]5)C=C4)C=C3)cc1 [TCPP]
- Cellular uptake and localisation of TCPP [1]: bound to the perinuclear membrane and mitochondria of neoplastic cells
- Number of Samples with Cells having Numerical Description by TCPP Fluorescence Microscopy/Number of Samples with Cell Description by Cytmorphology ([2]; 1 = Large nucleus or nuclei, low to medium fluorescence, Adenicarcinoma, squamous cell and small cell carcinoma (n = 10)): 6/10
- Number of Samples with Cells having Numerical Description by TCPP Fluorescence Microscopy/Number of Samples with Cell Description by Cytmorphology ([2]; 1 = Large nucleus or nuclei, low to medium fluorescence, Carcinoma in situ (n = 11)): 10/11
- Number of Samples with Cells having Numerical Description by TCPP Fluorescence Microscopy/Number of Samples with Cell Description by Cytmorphology ([2]; 1 = Large nucleus or nuclei, low to medium fluorescence, Mild dysplasia (n = 12)): 12/12
- Number of Samples with Cells having Numerical Description by TCPP Fluorescence Microscopy/Number of Samples with Cell Description by Cytmorphology ([2]; 1 = Large nucleus or nuclei, low to medium fluorescence, Moderate dysplasia (n = 9)): 9/9
- Number of Samples with Cells having Numerical Description by TCPP Fluorescence Microscopy/Number of Samples with Cell Description by Cytmorphology ([2]; 1 = Large nucleus or nuclei, low to medium fluorescence, Negative or metaplastic (n = 10)): 3/10
- Number of Samples with Cells having Numerical Description by TCPP Fluorescence Microscopy/Number of Samples with Cell Description by Cytmorphology ([2]; 1 = Large nucleus or nuclei, low to medium fluorescence, Severe dysplasia (n = 8)): 7/8
- Number of Samples with Cells having Numerical Description by TCPP Fluorescence Microscopy/Number of Samples with Cell Description by Cytmorphology ([2]; 2 = Symmetrical binuclear cells, medium fluorescence, Adenicarcinoma, squamous cell and small cell carcinoma (n = 10)): 2/10
- Number of Samples with Cells having Numerical Description by TCPP Fluorescence Microscopy/Number of Samples with Cell Description by Cytmorphology ([2]; 2 = Symmetrical binuclear cells, medium fluorescence, Carcinoma in situ (n = 11)): 3/11
- Number of Samples with Cells having Numerical Description by TCPP Fluorescence Microscopy/Number of Samples with Cell Description by Cytmorphology ([2]; 2 = Symmetrical binuclear cells, medium fluorescence, Mild dysplasia (n = 12)): 5/12
- Number of Samples with Cells having Numerical Description by TCPP Fluorescence Microscopy/Number of Samples with Cell Description by Cytmorphology ([2]; 2 = Symmetrical binuclear cells, medium fluorescence, Moderate dysplasia (n = 9)): 5/9
- Number of Samples with Cells having Numerical Description by TCPP Fluorescence Microscopy/Number of Samples with Cell Description by Cytmorphology ([2]; 2 = Symmetrical binuclear cells, medium fluorescence, Negative or metaplastic (n = 10)): 0/10
- Number of Samples with Cells having Numerical Description by TCPP Fluorescence Microscopy/Number of Samples with Cell Description by Cytmorphology ([2]; 2 = Symmetrical binuclear cells, medium fluorescence, Severe dysplasia (n = 8)): 3/8
- Number of Samples with Cells having Numerical Description by TCPP Fluorescence Microscopy/Number of Samples with Cell Description by Cytmorphology ([2]; 3 = Small oval cells, medium to high fluorescence, Adenicarcinoma, squamous cell and small cell carcinoma (n = 10)): 6/10
- Number of Samples with Cells having Numerical Description by TCPP Fluorescence Microscopy/Number of Samples with Cell Description by Cytmorphology ([2]; 3 = Small oval cells, medium to high fluorescence, Carcinoma in situ (n = 11)): 6/11
- Number of Samples with Cells having Numerical Description by TCPP Fluorescence Microscopy/Number of Samples with Cell Description by Cytmorphology ([2]; 3 = Small oval cells, medium to high fluorescence, Mild dysplasia (n = 12)): 4/12
- Number of Samples with Cells having Numerical Description by TCPP Fluorescence Microscopy/Number of Samples with Cell Description by Cytmorphology ([2]; 3 = Small oval cells, medium to high fluorescence, Moderate dysplasia (n = 9)): 4/9
- Number of Samples with Cells having Numerical Description by TCPP Fluorescence Microscopy/Number of Samples with Cell Description by Cytmorphology ([2]; 3 = Small oval cells, medium to high fluorescence, Negative or metaplastic (n = 10)): 0/10
- Number of Samples with Cells having Numerical Description by TCPP Fluorescence Microscopy/Number of Samples with Cell Description by Cytmorphology ([2]; 3 = Small oval cells, medium to high fluorescence, Severe dysplasia (n = 8)): 2/8
- Number of Samples with Cells having Numerical Description by TCPP Fluorescence Microscopy/Number of Samples with Cell Description by Cytmorphology ([2]; 4 = Small round cells, low fluorescence, Adenicarcinoma, squamous cell and small cell carcinoma (n = 10)): 2/10
- Number of Samples with Cells having Numerical Description by TCPP Fluorescence Microscopy/Number of Samples with Cell Description by Cytmorphology ([2]; 4 = Small round cells, low fluorescence, Carcinoma in situ (n = 11)): 0/11
- Number of Samples with Cells having Numerical Description by TCPP Fluorescence Microscopy/Number of Samples with Cell Description by Cytmorphology ([2]; 4 = Small round cells, low fluorescence, Mild dysplasia (n = 12)): 0/12
- Number of Samples with Cells having Numerical Description by TCPP Fluorescence Microscopy/Number of Samples with Cell Description by Cytmorphology ([2]; 4 = Small round cells, low fluorescence, Moderate dysplasia (n = 9)): 0/9
- Number of Samples with Cells having Numerical Description by TCPP Fluorescence Microscopy/Number of Samples with Cell Description by Cytmorphology ([2]; 4 = Small round cells, low fluorescence, Negative or metaplastic (n = 10)): 0/10
- Number of Samples with Cells having Numerical Description by TCPP Fluorescence Microscopy/Number of Samples with Cell Description by Cytmorphology ([2]; 4 = Small round cells, low fluorescence, Severe dysplasia (n = 8)): 0/8
- Number of Samples with Cells having Numerical Description by TCPP Fluorescence Microscopy/Number of Samples with Cell Description by Cytmorphology ([2]; 5 = Multi-nucleated cells, medium fluorescence, Adenicarcinoma, squamous cell and small cell carcinoma (n = 10)): 7/10
- Number of Samples with Cells having Numerical Description by TCPP Fluorescence Microscopy/Number of Samples with Cell Description by Cytmorphology ([2]; 5 = Multi-nucleated cells, medium fluorescence, Carcinoma in situ (n = 11)): 9/11
- Number of Samples with Cells having Numerical Description by TCPP Fluorescence Microscopy/Number of Samples with Cell Description by Cytmorphology ([2]; 5 = Multi-nucleated cells, medium fluorescence, Mild dysplasia (n = 12)): 0/12
- Number of Samples with Cells having Numerical Description by TCPP Fluorescence Microscopy/Number of Samples with Cell Description by Cytmorphology ([2]; 5 = Multi-nucleated cells, medium fluorescence, Moderate dysplasia (n = 9)): 3/9
- Number of Samples with Cells having Numerical Description by TCPP Fluorescence Microscopy/Number of Samples with Cell Description by Cytmorphology ([2]; 5 = Multi-nucleated cells, medium fluorescence, Negative or metaplastic (n = 10)): 0/10
- Number of Samples with Cells having Numerical Description by TCPP Fluorescence Microscopy/Number of Samples with Cell Description by Cytmorphology ([2]; 5 = Multi-nucleated cells, medium fluorescence, Severe dysplasia (n = 8)): 6/8
- Number of Samples with Cells having Numerical Description by TCPP Fluorescence Microscopy/Number of Samples with Cell Description by Cytmorphology ([2]; 6 = Irregular anisoid cells, low to medium fluorescence, Adenicarcinoma, squamous cell and small cell carcinoma (n = 10)): 7/10
- Number of Samples with Cells having Numerical Description by TCPP Fluorescence Microscopy/Number of Samples with Cell Description by Cytmorphology ([2]; 6 = Irregular anisoid cells, low to medium fluorescence, Carcinoma in situ (n = 11)): 10/11
- Number of Samples with Cells having Numerical Description by TCPP Fluorescence Microscopy/Number of Samples with Cell Description by Cytmorphology ([2]; 6 = Irregular anisoid cells, low to medium fluorescence, Mild dysplasia (n = 12)): 0/12
- Number of Samples with Cells having Numerical Description by TCPP Fluorescence Microscopy/Number of Samples with Cell Description by Cytmorphology ([2]; 6 = Irregular anisoid cells, low to medium fluorescence, Moderate dysplasia (n = 9)): 1/9
- Number of Samples with Cells having Numerical Description by TCPP Fluorescence Microscopy/Number of Samples with Cell Description by Cytmorphology ([2]; 6 = Irregular anisoid cells, low to medium fluorescence, Negative or metaplastic (n = 10)): 0/10
- Number of Samples with Cells having Numerical Description by TCPP Fluorescence Microscopy/Number of Samples with Cell Description by Cytmorphology ([2]; 6 = Irregular anisoid cells, low to medium fluorescence, Severe dysplasia (n = 8)): 1/8
- Number of Samples with Cells having Numerical Description by TCPP Fluorescence Microscopy/Number of Samples with Cell Description by Cytmorphology ([2]; 7 = Cellular clusters, medium to high fluorescence, Adenicarcinoma, squamous cell and small cell carcinoma (n = 10)): 3/10
- Number of Samples with Cells having Numerical Description by TCPP Fluorescence Microscopy/Number of Samples with Cell Description by Cytmorphology ([2]; 7 = Cellular clusters, medium to high fluorescence, Carcinoma in situ (n = 11)): 1/11
- Number of Samples with Cells having Numerical Description by TCPP Fluorescence Microscopy/Number of Samples with Cell Description by Cytmorphology ([2]; 7 = Cellular clusters, medium to high fluorescence, Mild dysplasia (n = 12)): 0/12
- Number of Samples with Cells having Numerical Description by TCPP Fluorescence Microscopy/Number of Samples with Cell Description by Cytmorphology ([2]; 7 = Cellular clusters, medium to high fluorescence, Moderate dysplasia (n = 9)): 1/9
- Number of Samples with Cells having Numerical Description by TCPP Fluorescence Microscopy/Number of Samples with Cell Description by Cytmorphology ([2]; 7 = Cellular clusters, medium to high fluorescence, Negative or metaplastic (n = 10)): 0/10
- Number of Samples with Cells having Numerical Description by TCPP Fluorescence Microscopy/Number of Samples with Cell Description by Cytmorphology ([2]; 7 = Cellular clusters, medium to high fluorescence, Severe dysplasia (n = 8)): 0/8
- Number of Samples with Cells having Numerical Description by TCPP Fluorescence Microscopy/Number of Samples with Cell Description by Cytmorphology ([2]; 8 = Degenerated single cells, medium to high fluorescence, Adenicarcinoma, squamous cell and small cell carcinoma (n = 10)): 7/10
- Number of Samples with Cells having Numerical Description by TCPP Fluorescence Microscopy/Number of Samples with Cell Description by Cytmorphology ([2]; 8 = Degenerated single cells, medium to high fluorescence, Carcinoma in situ (n = 11)): 4/11
- Number of Samples with Cells having Numerical Description by TCPP Fluorescence Microscopy/Number of Samples with Cell Description by Cytmorphology ([2]; 8 = Degenerated single cells, medium to high fluorescence, Mild dysplasia (n = 12)): 0/12
- Number of Samples with Cells having Numerical Description by TCPP Fluorescence Microscopy/Number of Samples with Cell Description by Cytmorphology ([2]; 8 = Degenerated single cells, medium to high fluorescence, Moderate dysplasia (n = 9)): 0/9
- Number of Samples with Cells having Numerical Description by TCPP Fluorescence Microscopy/Number of Samples with Cell Description by Cytmorphology ([2]; 8 = Degenerated single cells, medium to high fluorescence, Negative or metaplastic (n = 10)): 0/10
- Number of Samples with Cells having Numerical Description by TCPP Fluorescence Microscopy/Number of Samples with Cell Description by Cytmorphology ([2]; 8 = Degenerated single cells, medium to high fluorescence, Severe dysplasia (n = 8)): 0/8
- Number of Samples with Cells having Numerical Description by TCPP Fluorescence Microscopy/Number of Samples with Cell Description by Cytmorphology ([2]; 9 = Degenerated cell clusters, medium to high fluorescence, Adenicarcinoma, squamous cell and small cell carcinoma (n = 10)): 4/10
- Number of Samples with Cells having Numerical Description by TCPP Fluorescence Microscopy/Number of Samples with Cell Description by Cytmorphology ([2]; 9 = Degenerated cell clusters, medium to high fluorescence, Carcinoma in situ (n = 11)): 1/11
- Number of Samples with Cells having Numerical Description by TCPP Fluorescence Microscopy/Number of Samples with Cell Description by Cytmorphology ([2]; 9 = Degenerated cell clusters, medium to high fluorescence, Mild dysplasia (n = 12)): 0/12
- Number of Samples with Cells having Numerical Description by TCPP Fluorescence Microscopy/Number of Samples with Cell Description by Cytmorphology ([2]; 9 = Degenerated cell clusters, medium to high fluorescence, Moderate dysplasia (n = 9)): 0/9
